Source: PubChem BioAssay (NCI)
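Values below derive from 48-hour exposures of cells grown in 96-well plates, with endpoints linearly interpolated between the two concentrations bracketing the appropriate inhibition level. Definition used: TGI = concentration required for complete inhibition of growth.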 Where a SMILES comes first, the peptide text is derived from it. The star is where a group is joined. OSu = O=C1CCC(=O)N1O*

Assays:
Test in all cases: NCI anticancer screen, dose series, 48 h
[1] = tested on: 786-0 renal
[2] = tested on: A498 renal
[3] = tested on: A549 NSCLC
[4] = tested on: CCRF-CEM leukemia
[5] = tested on: HOP-92 NSCLC
[6] = tested on: LOX IMVI melanoma
[7] = tested on: MALME-3M melanoma
[8] = tested on: NCI-H23 lung
[9] = tested on: NCI-H460 lung
[10] = tested on: SF-268 CNS
[11] = tested on: SN12C renal
[12] = tested on: TK-10 renal
[13] = tested on: UACC-62 melanoma
[14] = tested on: UO-31 renal
[15] = tested on: SK-MEL-28 melanoma
[16] = tested on: MDA-MB-435
[17] = tested on: MDA-N
[18] = tested on: NCI/ADR-RES ovarian
[19] = tested on: PC-3 prostate
[20] = tested on: MDA-MB-231 breast

Compound	TGI [1] [µM]	TGI [2] [µM]	TGI [3] [µM]	TGI [4] [µM]	TGI [5] [µM]	TGI [6] [µM]	TGI [7] [µM]	TGI [8] [µM]	TGI [9] [µM]	TGI [10] [µM]	TGI [11] [µM]	TGI [12] [µM]	TGI [13] [µM]	TGI [14] [µM]	TGI [15] [µM]	TGI [16] [µM]	TGI [17] [µM]	TGI [18] [µM]	TGI [19] [µM]	TGI [20] [µM]
CC(=O)NC1=C(N)C(=O)c2ccccc2C1=O	> 100	> 100	> 100	> 100	> 100	28.6	50.4	> 100	40.6	> 100	> 100	> 100	> 100	> 100	–	–	–	–	–	–
O=C(O)c1ccc(Nc2nc3nn(Cc4ccccc4)cc3c(=O)s2)cc1	> 100	–	> 100	> 100	> 100	> 100	> 100	> 100	> 100	> 100	> 100	> 100	–	> 100	> 100	–	–	–	–	–
OC12CCC3(O)c4ccccc4C3C1c1ccccc12 (configuration not stated)	> 100	–	> 100	> 100	–	> 100	> 100	> 100	> 100	> 100	> 100	> 100	> 100	> 100	> 100	–	–	–	–	–
CCC(=O)Nc1ccc(NCC(=O)Nc2ccc(OC)cc2)cc1	46.4	87.9	> 100	> 100	66.3	39.3	49.5	41.8	–	39.7	37.5	–	56.7	> 100	> 100	> 100	> 100	85.7	89.9	–
NS(=O)(=O)c1nnc(NS(=O)(=O)c2ccc([N+](=O)[O-])cc2)s1	> 100	> 100	> 100	–	> 100	> 100	> 100	> 100	> 100	> 100	–	> 100	> 100	> 100	> 100	> 100	–	> 100	> 100	> 100
COc1ccc2c3c1OC1C(OC)(OC)CC4(C=C2)CN(C)CCC314 (configuration not stated)	> 100	> 100	> 100	> 100	–	> 100	> 100	> 100	> 100	> 100	> 100	> 100	> 100	> 100	> 100	> 100	> 100	> 100	–	> 100
O=c1[nH]nc(-c2ccc(F)cc2)cc1-c1ccccc1	> 100	> 100	> 100	> 100	> 100	> 100	> 100	> 100	> 100	> 100	> 100	> 100	> 100	–	> 100	> 100	–	> 100	> 100	> 100
CCn1c(CSc2nc(-c3ccccc3)c(-c3ccccc3)[nH]2)n[nH]c1=S	> 100	> 100	> 100	> 100	> 100	> 100	> 100	> 100	> 100	> 100	> 100	> 100	–	> 100	> 100	–	–	–	–	–
CC(=O)NC1C(OCc2ccccc2)OC(CO)C(O)C1OCC(=O)N[C@@H](C)C(=O)N[C@H](CCC(=O)NCCNc1ccc([N+](=O)[O-])c2[nH]c3ccccc3c(=O)c12)C(N)=O (some centres not stated)	83.2	58	–	> 100	80.8	99.5	> 100	90	30.7	–	> 100	42.3	46.6	37.4	> 100	> 100	> 100	59.7	–	94.4
Cc1ccc(/S(Cc2ccccc2)=N\S(=O)(=O)c2ccc(C)cc2)cc1 (configuration not stated)	> 100	–	> 100	> 100	> 100	–	> 100	> 100	> 100	> 100	> 100	> 100	–	> 100	> 100	> 100	> 100	> 100	> 100	–
O=c1[nH]c(=O)n([C@@H]2O[C@H](CO)[C@@H](O)[C@@H]2F)cc1I	> 100	> 100	> 100	66.8	> 100	> 100	> 100	> 100	> 100	> 100	> 100	> 100	> 100	> 100	> 100	> 100	> 100	> 100	–	> 100
Cc1ccc(S(=O)(=O)NC(=O)NC(CCC(N)=O)C(=O)O)cc1 (configuration not stated)	> 100	–	> 100	> 100	> 100	> 100	> 100	> 100	> 100	> 100	> 100	> 100	> 100	> 100	> 100	–	> 100	> 100	> 100	> 100
C/C(O)=C(\C=NC(=S)c1ccncc1)C(=O)Nc1ccccc1C	> 100	> 100	> 100	–	> 100	> 100	–	> 100	> 100	> 100	> 100	> 100	> 100	> 100	> 100	> 100	> 100	> 100	–	> 100
COc1cc(OC)c(OC)cc1/C=C/c1cc[n+](C)c2ccccc12	> 100	> 100	> 100	80.9	76.2	–	> 100	97.4	> 100	> 100	–	> 100	–	> 100	> 100	–	> 100	> 100	75.1	–
C/C(O[Si](C(C)C)(C(C)C)C(C)C)=C(\C)C(=O)N(C)c1ccccc1Cl	> 100	> 100	> 100	–	> 100	> 100	> 100	> 100	> 100	> 100	> 100	> 100	–	> 100	> 100	> 100	–	> 100	–	> 100
O=C1NC(=Nc2ccccc2Cl)N/C1=C\c1ccc(Cl)cc1Cl	> 100	> 100	> 100	> 100	> 100	> 100	> 100	> 100	> 100	> 100	73.6	> 100	> 100	> 100	> 100	> 100	> 100	> 100	> 100	–
CC12CCC(CC1(Cl)Cl)C2 (configuration not stated)	> 100	–	> 100	> 100	> 100	> 100	> 100	> 100	> 100	> 100	> 100	> 100	> 100	> 100	> 100	> 100	–	> 100	> 100	–
C[n+]1ccccc1/C1=c2\cc/c([nH]2)=C(\c2cccc[n+]2C)C2=N/C(=C(/c3cccc[n+]3C)C3C=CC(N3)/C(c3cccc[n+]3C)=C3/C=CC1=N3)C=C2	> 100	> 100	> 100	> 100	> 100	> 100	> 100	> 100	> 100	> 100	> 100	> 100	> 100	> 100	> 100	> 100	> 100	> 100	> 100	–
O=[N+]([O-])C(C(Cl)=C(Cl)Cl)=C(n1cncn1)n1cncn1	45.4	> 100	> 100	22	–	44.9	31.2	54.2	> 100	35.3	26.9	> 100	> 100	34.9	> 95.9	> 71.8	–	67	> 100	39.3
NCCCCC(NC(=O)C(N)Cc1ccc(O)cc1)C(=O)NC(Cc1ccc(O)cc1)C(=O)NC(CCCCN)C(=O)ON1C(=O)CCC1=O (configuration not stated) (H-YKYK-OSu; configuration not given here)	> 100	> 100	> 100	–	> 100	–	> 100	> 100	> 100	–	> 100	> 100	> 100	> 100	> 100	–	> 100	–	> 100	> 100
NC(N)=N/N=C/c1c(-c2cc([N+](=O)[O-])c(Cl)cc2Cl)nc2n1CCS2	> 100	> 100	> 100	> 100	61.6	> 100	57.9	48.3	> 100	> 100	> 100	45.9	97.1	38.2	22.2	74.3	–	> 100	> 100	> 100
COc1cc(S(=O)(=O)Nc2ccc(-c3csc(N4C(=O)C(Cl)C4c4cccs4)n3)cc2)ccc1Cl (configuration not stated)	68.3	> 100	> 100	35.7	45.5	5.15	> 100	> 100	> 100	> 100	> 100	–	> 100	> 100	> 100	> 100	> 100	> 100	> 100	–
Cc1nc(Nc2ccc(Cl)c(Cl)c2)sc1C(=O)/C=C/c1ccc2c(c1)OCO2	38.4	47.8	48.5	> 100	–	35.3	> 100	49.5	> 100	64	–	53.6	> 100	33.7	86.9	48.4	–	> 100	–	–
O/N=C\C(=Nc1ccc(Cc2ccc(N=C(/C=N\O)NO)cc2)cc1)NO	> 100	> 100	> 100	> 100	> 100	> 100	> 100	> 100	> 100	> 100	> 100	> 100	> 100	65	> 100	–	–	–	–	–
O=C(c1ccco1)N(C(=S)N1CCN(c2ccccn2)CC1)c1ccccc1	> 100	–	> 100	> 100	> 100	> 100	> 100	> 100	> 100	> 100	> 100	> 100	> 100	> 100	> 100	–	–	–	–	–
Cc1ccc(C2C(Cl)C(=O)N2NC(=O)c2ccc(N)cc2)cc1 (configuration not stated)	37.8	56.4	71.7	39.2	28.5	24.4	32.1	38.3	35.5	–	52.2	> 100	31.4	86.5	26	–	–	–	–	–
COc1ccc(/C(Cl)=C(\C=O)c2ccc(Cl)cc2)cc1OC	–	54.3	> 100	10.3	–	14.5	> 100	8.36	> 100	> 100	16.6	31.1	39.9	28	–	–	–	–	–	–
